Data as given in ChEMBL document CHEMBL1145395, “De novo design of selective antibiotic peptides by incorporation of unnatural amino acids” (J Med Chem, 2007).
In brackets after ≈: the same amount, converted by molar mass. Activity calls are given as the source filed them. No cut-off for these calls is given here. Non-standard residues stand in square brackets, D forms with d. Residues, ends and D or L forms follow the SMILES beside them. ξ: configuration not given here. Pro(3ξ,4ξ-(CH2)4) = O=C(O)[C@H]1NCC2CCCCC21; Oic = O=C(O)[C@@H]1C[C@@H]2CCCC[C@@H]2N1; Tic = O=C(O)[C@@H]1Cc2ccccc2CN1

How the values were obtained:
[1] = test system: Bacillus subtilis; assay: Antibacterial activity against Bacillus subtilis ATCC 43223; type: functional
[2] = test system: Salmonella typhimurium; assay: Antibacterial activity against Salmonella Typhimurium ATCC 13311; type: functional, Salmonella enterica subsp. enterica serovar Typhimurium; conditions: for MIC: Salmonella enterica; for Activity: Salmonella enterica subsp. enterica serovar Typhimurium
[3] = test system: Staphylococcus aureus; assay: Antibacterial activity against methicillin/gentamicin/tetracycline resistant Staphylococcus aureus ATCC 33592; type: functional
[4] = Toxicity to mouse RBC assessed as hemolytic activity at 100 uM; type: cell-based, Erythrocyte; conditions: red blood cells, read-out: Activity
[5] = test system: Mycobacterium; assay: Antibacterial activity against Mycobacterium ranae ATCC 110; type: functional

MIC [1] [µM] | MIC [2] [µM] | SMILES | Activity [2] | hemolysis at 100 µM [4] [%] | also measured
1 (≈ 3.62 µg/mL) | 100 (≈ 362 µg/mL) | CC(C)C[C@H](NC(=O)CNC(=O)[C@H](CCCCN)NC(=O)CN)C(=O)N1Cc2ccccc2C[C@H]1C(=O)N1[C@H](C(=O)NCC(=O)N[C@@H](CCCNC(=N)N)C(=O)N2Cc3ccccc3C[C@H]2C(=O)N2[C@H](C(=O)NCC(=O)N[C@@H](Cc3ccccc3)C(=O)N3Cc4ccccc4C[C@H]3C(=O)N3[C@H](C(=O)NCC(=O)N[C@@H](CCCNC(=N)N)C(=O)N4Cc5ccccc5C[C@H]4C(=O)N4[C@H](C(=O)NCC(=O)N[C@@H](Cc5ccccc5)C(=O)N5Cc6ccccc6C[C@H]5C(=O)N5[C@H](C(=O)NCC(=O)N[C@@H](CCCNC(=N)N)C(=O)N6Cc7ccccc7C[C@H]6C(=O)N6[C@H](C(=O)NCC(=O)N[C@@H](CCCCN)C(=O)N[C@@H](CCCNC(=N)N)C(N)=O)C[C@@H]7CCCC[C@@H]76)C[C@@H]6CCCC[C@@H]65)C[C@@H]5CCCC[C@@H]54)C[C@@H]4CCCC[C@@H]43)C[C@@H]3CCCC[C@@H]32)C[C@@H]2CCCC[C@@H]21 (H-GKGL[Tic][Oic]GR[Tic][Oic]GF[Tic][Oic]GR[Tic][Oic]GF[Tic][Oic]GR[Tic][Oic]GKR-NH2) [listing 1 of 2 here] |  |  | 
 |  | CC(C)C[C@H](NC(=O)CNC(=O)[C@H](CCCCN)NC(=O)CN)C(=O)N1Cc2ccccc2C[C@H]1C(=O)N1CC2CCCCC2[C@H]1C(=O)NCC(=O)N[C@@H](CC(C)C)C(=O)N1Cc2ccccc2C[C@H]1C(=O)N1CC2CCCCC2[C@H]1C(=O)NCC(=O)N[C@@H](CCCCN)C(=O)N1Cc2ccccc2C[C@H]1C(=O)N1CC2CCCCC2[C@H]1C(=O)NCC(=O)N[C@@H](CC(C)C)C(=O)N1Cc2ccccc2C[C@H]1C(=O)N1CC2CCCCC2[C@H]1C(=O)NCC(=O)N[C@@H](CCCCN)C(=O)N1Cc2ccccc2C[C@H]1C(=O)N1CC2CCCCC2[C@H]1C(=O)NCC(=O)N[C@@H](CC(C)C)C(=O)N1Cc2ccccc2C[C@H]1C(=O)N1CC2CCCCC2[C@H]1C(=O)NCC(=O)N[C@@H](CCCCN)C(=O)N[C@@H](CCCNC(=N)N)C(N)=O (stereo partly specified) (H-GKGL[Tic][Pro(3ξ,4ξ-(CH2)4)]GL[Tic][Pro(3ξ,4ξ-(CH2)4)]GK[Tic][Pro(3ξ,4ξ-(CH2)4)]GL[Tic][Pro(3ξ,4ξ-(CH2)4)]GK[Tic][Pro(3ξ,4ξ-(CH2)4)]GL[Tic][Pro(3ξ,4ξ-(CH2)4)]GKR-NH2) | inactive | 100 | MIC [3]: 100 µM (≈ 346 µg/mL)
 |  | CSCC[C@H](NC(=O)[C@H](CC(C)C)NC(=O)[C@H](CCC(=O)O)NC(=O)[C@@H]1C2CCCCC2CN1C(=O)[C@@H]1Cc2ccccc2CN1C(=O)[C@H](CCCCN)NC(=O)CNC(=O)[C@H](CC(C)C)NC(=O)[C@H](CCCCN)NC(=O)CNC(=O)[C@@H]1C2CCCCC2CN1C(=O)[C@@H]1Cc2ccccc2CN1C(=O)[C@H](CO)NC(=O)[C@H](CC(N)=O)NC(=O)[C@H](CCSC)NC(=O)[C@H](CC(C)C)NC(=O)[C@@H](N)CCC(=O)O)C(=O)N[C@@H](CO)C(N)=O (stereo partly specified) (H-ELMNS[Tic][Pro(3ξ,4ξ-(CH2)4)]GKLGK[Tic][Pro(3ξ,4ξ-(CH2)4)]ELMS-NH2) | inactive | 23 | Activity [3]: inactive
 |  | CSCC[C@H](NC(=O)[C@H](CC(C)C)NC(=O)[C@H](CCC(=O)O)NC(=O)[C@@H]1C2CCCCC2CN1C(=O)[C@@H]1Cc2ccccc2CN1C(=O)[C@H](CCCCN)NC(=O)CNC(=O)[C@@H]1C2CCCCC2CN1C(=O)[C@@H]1Cc2ccccc2CN1C(=O)[C@H](CC(C)C)NC(=O)CNC(=O)[C@@H]1C2CCCCC2CN1C(=O)[C@@H]1Cc2ccccc2CN1C(=O)[C@H](CCCCN)NC(=O)CNC(=O)[C@@H]1C2CCCCC2CN1C(=O)[C@@H]1Cc2ccccc2CN1C(=O)[C@H](CC(C)C)NC(=O)CNC(=O)[C@@H]1C2CCCCC2CN1C(=O)[C@@H]1Cc2ccccc2CN1C(=O)[C@H](CO)NC(=O)[C@H](CC(N)=O)NC(=O)[C@H](CCSC)NC(=O)[C@H](CC(C)C)NC(=O)[C@@H](N)CCC(=O)O)C(=O)N[C@@H](CC(N)=O)C(=O)N[C@@H](CO)C(N)=O (stereo partly specified) (H-ELMNS[Tic][Pro(3ξ,4ξ-(CH2)4)]GL[Tic][Pro(3ξ,4ξ-(CH2)4)]GK[Tic][Pro(3ξ,4ξ-(CH2)4)]GL[Tic][Pro(3ξ,4ξ-(CH2)4)]GK[Tic][Pro(3ξ,4ξ-(CH2)4)]ELMNS-NH2) | inactive | 3 | Activity [3]: inactive
 |  | CSCC[C@H](NC(=O)[C@H](CC(C)C)NC(=O)[C@H](CCC(=O)O)NC(=O)[C@@H]1C[C@@H]2CCCC[C@@H]2N1C(=O)[C@@H]1Cc2ccccc2CN1C(=O)[C@H](Cc1ccccc1)NC(=O)CNC(=O)[C@@H]1C[C@@H]2CCCC[C@@H]2N1C(=O)[C@@H]1Cc2ccccc2CN1C(=O)[C@H](CCCNC(=N)N)NC(=O)CNC(=O)[C@@H]1C[C@@H]2CCCC[C@@H]2N1C(=O)[C@@H]1Cc2ccccc2CN1C(=O)[C@H](Cc1ccccc1)NC(=O)CNC(=O)[C@@H]1C[C@@H]2CCCC[C@@H]2N1C(=O)[C@@H]1Cc2ccccc2CN1C(=O)[C@H](CCCNC(=N)N)NC(=O)CNC(=O)[C@@H]1C[C@@H]2CCCC[C@@H]2N1C(=O)[C@@H]1Cc2ccccc2CN1C(=O)[C@H](CC(C)C)NC(=O)CNC(=O)[C@H](CCCCN)NC(=O)CN)C(=O)N[C@@H](CC(N)=O)C(=O)N[C@@H](CO)C(N)=O (H-GKGL[Tic][Oic]GR[Tic][Oic]GF[Tic][Oic]GR[Tic][Oic]GF[Tic][Oic]ELMNS-NH2) |  | 70 | 
 |  | CC(C)C[C@H](NC(=O)CNC(=O)[C@H](CCCCN)NC(=O)CN)C(=O)N1Cc2ccccc2C[C@H]1C(=O)N1CC2CCCCC2[C@H]1C(=O)NCC(=O)N[C@@H](CCCCN)C(=O)N1Cc2ccccc2C[C@H]1C(=O)N1CC2CCCCC2[C@H]1C(=O)NCC(=O)N[C@@H](CC(C)C)C(=O)N1Cc2ccccc2C[C@H]1C(=O)N1CC2CCCCC2[C@H]1C(=O)NCC(=O)N[C@@H](CCCCN)C(=O)N1Cc2ccccc2C[C@H]1C(=O)N1CC2CCCCC2[C@H]1C(=O)NCC(=O)N[C@@H](CC(C)C)C(=O)N1Cc2ccccc2C[C@H]1C(=O)N1CC2CCCCC2[C@H]1C(=O)NCC(=O)N[C@@H](CCCCN)C(=O)N1Cc2ccccc2C[C@H]1C(=O)N1CC2CCCCC2[C@H]1C(=O)NCC(=O)N[C@@H](CCCCN)C(=O)N[C@@H](CCCNC(=N)N)C(N)=O (stereo partly specified) (H-GKGL[Tic][Pro(3ξ,4ξ-(CH2)4)]GK[Tic][Pro(3ξ,4ξ-(CH2)4)]GL[Tic][Pro(3ξ,4ξ-(CH2)4)]GK[Tic][Pro(3ξ,4ξ-(CH2)4)]GL[Tic][Pro(3ξ,4ξ-(CH2)4)]GK[Tic][Pro(3ξ,4ξ-(CH2)4)]GKR-NH2) |  | 100 | 
3 (≈ 5.41 µg/mL) | 100 (≈ 180 µg/mL) | CC(=O)NCC(=O)N[C@@H](Cc1ccccc1)C(=O)N1CC2CCCCC2[C@H]1C(=O)NCC(=O)N[C@@H](CCCCN)C(=O)N1CC2CCCCC2[C@H]1C(=O)NCC(=O)N[C@@H](Cc1ccccc1)C(=O)N1CC2CCCCC2[C@H]1C(=O)NCC(=O)N[C@@H](CCCCN)C(=O)N[C@@H](CCCCN)C(=O)N[C@@H](CCCCN)C(=O)N[C@@H](CCCCN)C(=O)N[C@@H](CCCCN)C(N)=O (stereo partly specified) (Ac-GF[Pro(3ξ,4ξ-(CH2)4)]GK[Pro(3ξ,4ξ-(CH2)4)]GF[Pro(3ξ,4ξ-(CH2)4)]GKKKKK-NH2) |  |  | MIC [5]: 100 µM (≈ 180 µg/mL)
 |  | CC(C)C[C@H](NC(=O)CNC(=O)[C@H](CCCCN)NC(=O)CN)C(=O)N1Cc2ccccc2C[C@H]1C(=O)N1CC2CCCCC2[C@H]1C(=O)NCC(=O)N[C@@H](CCCCN)C(=O)N1Cc2ccccc2C[C@H]1C(=O)N1CC2CCCCC2[C@H]1C(=O)NCC(=O)N[C@@H](Cc1ccccc1)C(=O)N1Cc2ccccc2C[C@H]1C(=O)N1CC2CCCCC2[C@H]1C(=O)NCC(=O)N[C@@H](CCCCN)C(=O)N1Cc2ccccc2C[C@H]1C(=O)N1CC2CCCCC2[C@H]1C(=O)NCC(=O)N[C@@H](Cc1ccccc1)C(=O)N1Cc2ccccc2C[C@H]1C(=O)N1CC2CCCCC2[C@H]1C(=O)NCC(=O)N[C@@H](CCCCN)C(=O)N1Cc2ccccc2C[C@H]1C(=O)N1CC2CCCCC2[C@H]1C(=O)NCC(=O)N[C@@H](CCCCN)C(=O)N[C@@H](CCCNC(=N)N)C(N)=O (stereo partly specified) (H-GKGL[Tic][Pro(3ξ,4ξ-(CH2)4)]GK[Tic][Pro(3ξ,4ξ-(CH2)4)]GF[Tic][Pro(3ξ,4ξ-(CH2)4)]GK[Tic][Pro(3ξ,4ξ-(CH2)4)]GF[Tic][Pro(3ξ,4ξ-(CH2)4)]GK[Tic][Pro(3ξ,4ξ-(CH2)4)]GKR-NH2) |  | 33.4 | 
 |  | CC(C)C[C@H](NC(=O)CNC(=O)[C@H](CCCCN)NC(=O)CN)C(=O)N1Cc2ccccc2C[C@H]1C(=O)N1[C@H](C(=O)NCC(=O)N[C@@H](CCCNC(=N)N)C(=O)N2Cc3ccccc3C[C@H]2C(=O)N2[C@H](C(=O)NCC(=O)N[C@@H](Cc3ccccc3)C(=O)N3Cc4ccccc4C[C@H]3C(=O)N3[C@H](C(=O)NCC(=O)N[C@@H](CCCNC(=N)N)C(=O)N4Cc5ccccc5C[C@H]4C(=O)N4[C@H](C(=O)NCC(=O)N[C@@H](Cc5ccccc5)C(=O)N5Cc6ccccc6C[C@H]5C(=O)N5[C@H](C(=O)NCC(=O)N[C@@H](CCCNC(=N)N)C(=O)N6Cc7ccccc7C[C@H]6C(=O)N6[C@H](C(=O)NCC(=O)N[C@@H](CCCCN)C(=O)N[C@@H](CCCNC(=N)N)C(N)=O)C[C@@H]7CCCC[C@@H]76)C[C@@H]6CCCC[C@@H]65)C[C@@H]5CCCC[C@@H]54)C[C@@H]4CCCC[C@@H]43)C[C@@H]3CCCC[C@@H]32)C[C@@H]2CCCC[C@@H]21 (H-GKGL[Tic][Oic]GR[Tic][Oic]GF[Tic][Oic]GR[Tic][Oic]GF[Tic][Oic]GR[Tic][Oic]GKR-NH2) [listing 2 of 2 here] |  | 100 | 

SMILES | MIC [1] [µM] | MIC [2] [µM] | Activity [2] | hemolysis at 100 µM [4] [%] | also measured
CC(C)C[C@H](NC(=O)CNC(=O)[C@H](CCCCN)NC(=O)CN)C(=O)N1Cc2ccccc2C[C@H]1C(=O)N1CC2CCCCC2[C@H]1C(=O)N[C@@H](Cc1ccccc1)C(=O)N[C@@H](CCCCN)C(=O)N1Cc2ccccc2C[C@H]1C(=O)N1CC2CCCCC2[C@H]1C(=O)N[C@@H](CCCCN)C(=O)N[C@@H](Cc1ccccc1)C(=O)N1Cc2ccccc2C[C@H]1C(=O)N1CC2CCCCC2[C@H]1C(=O)N[C@@H](Cc1ccccc1)C(=O)N[C@@H](CCCCN)C(=O)N1Cc2ccccc2C[C@H]1C(=O)N1CC2CCCCC2[C@H]1C(=O)N[C@@H](CCCCN)C(=O)N[C@@H](Cc1ccccc1)C(=O)N1Cc2ccccc2C[C@H]1C(=O)N1CC2CCCCC2[C@H]1C(=O)N[C@@H](Cc1ccccc1)C(=O)N[C@@H](CCCCN)C(=O)N1Cc2ccccc2C[C@H]1C(=O)N1CC2CCCCC2[C@H]1C(=O)N[C@@H](Cc1ccccc1)C(=O)N[C@@H](CCCCN)C(=O)N[C@@H](CCCNC(=N)N)C(N)=O (stereo partly specified) (H-GKGL[Tic][Pro(3ξ,4ξ-(CH2)4)]FK[Tic][Pro(3ξ,4ξ-(CH2)4)]KF[Tic][Pro(3ξ,4ξ-(CH2)4)]FK[Tic][Pro(3ξ,4ξ-(CH2)4)]KF[Tic][Pro(3ξ,4ξ-(CH2)4)]FK[Tic][Pro(3ξ,4ξ-(CH2)4)]FKR-NH2) | 3 (≈ 12.1 µg/mL) | 100 (≈ 404 µg/mL) |  |  | MIC [3]: 30 µM (≈ 121 µg/mL)
